Broadly, the TGI is the concentration at which net growth stops. A lower TGI goes with more potent growth arrest. For orientation: GI50 means the concentration that inhibits growth by half.

Our source for the TGI and GI50 values is PubChem BioAssay (NCI).

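Protocol summary: plate cells (96-well), add compound at 5 concentrations, incubate 48 h, interpolate endpoints linearly. At the GI50, growth is halved. TGI: concentration producing complete growth inhibition.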

Test systems include A549 NSCLC; K-562 leukemia; MOLT-4 leukemia; NCI-H23 lung; OVCAR-3 ovarian; SF-539 CNS; SK-MEL-5 melanoma; DU-145 prostate; PC-3 prostate; A498 renal.
Assay in all cases: DTP human tumour cell line panel, 48 h

On to `CNC(=O)OCc1cc2ccncc2c2c1[nH]c1ccccc12`, for which the TGI is above 100 µM in the assay on A549 NSCLC; above 100 µM in the assay on K-562 leukemia; above 85.3 µM in the assay on MOLT-4 leukemia; above 100 µM with NCI-H23 lung; above 100 µM in the assay on OVCAR-3 ovarian; above 100 µM in the assay on SF-539 CNS. The TGI in the assay with SK-MEL-5 melanoma is above 100 µM.
Regarding `Cc1cccc2c1ccc1c3occ(C)c3c(=O)oc21`, the GI50 in the assay on A549 NSCLC is above 100 µM; in the assay on DU-145 prostate it was above 100 µM; in the assay on K-562 leukemia, above 100 µM; with MOLT-4 leukemia, 51.5 µM; in the assay with NCI-H23 lung, above 100 µM; with OVCAR-3 ovarian, above 100 µM. Besides, the GI50 in the assay with PC-3 prostate and in the assay on SK-MEL-5 melanoma was above 100 µM throughout. Also, the TGI in the assay on A549 NSCLC, with DU-145 prostate, in the assay on K-562 leukemia, in the assay with MOLT-4 leukemia, with NCI-H23 lung and in the assay on OVCAR-3 ovarian was above 100 µM each time. The TGI with PC-3 prostate and in the assay on SK-MEL-5 melanoma was above 100 µM in each case.
In the case of `COc1cc2c3c(c1OCc1ccccc1)NCCC3NCC2` (stereo not drawn), the TGI in the assay with A498 renal, with A549 NSCLC, in the assay with K-562 leukemia, in the assay on MOLT-4 leukemia, in the assay on NCI-H23 lung and in the assay on OVCAR-3 ovarian was above 100 µM in each case. In addition, the TGI with SF-539 CNS and with SK-MEL-5 melanoma was above 100 µM in each case.
Regarding `Cc1cn2c(/C=N/N=C(N)N)c(-c3cc(Cl)sc3Cl)nc2s1`, the GI50 is 1.17 µM with MOLT-4 leukemia, 0.904 µM with NCI-H23 lung, 0.8 µM with PC-3 prostate and 0.905 µM in the assay with SK-MEL-5 melanoma. Moreover, the TGI in the assay on MOLT-4 leukemia was determined as 2.06 µM; in the assay on NCI-H23 lung, 1.66 µM; in the assay on PC-3 prostate it was 1.48 µM; with SK-MEL-5 melanoma it was 1.74 µM.
As to `CCCCCCCCCCNC(=S)OCCCC`, the TGI in the assay with A498 renal came to 62.6 µM; in the assay with A549 NSCLC it was 73.6 µM; with K-562 leukemia, 36.6 µM; in the assay with MOLT-4 leukemia, 32.6 µM; in the assay with NCI-H23 lung it was 53.9 µM; in the assay with SF-539 CNS, 48.3 µM. In the assay on SK-MEL-5 melanoma, this molecule registered a TGI of 33.3 µM.
On to `NC(=O)OCC(COc1ccc(Cl)cc1)OC(=O)c1cc([N+](=O)[O-])cc([N+](=O)[O-])c1` (stereo not drawn), for which the TGI with A498 renal, in the assay on A549 NSCLC, in the assay with K-562 leukemia, in the assay on MOLT-4 leukemia, in the assay on NCI-H23 lung and with OVCAR-3 ovarian was above 100 µM each time. The TGI with SF-539 CNS and in the assay with SK-MEL-5 melanoma was above 100 µM each time.
As to `CCOC(=O)/C(=C/c1ccc(Cl)cc1)N(CC)CC`, the TGI in the assay on A498 renal, with A549 NSCLC, in the assay with K-562 leukemia, with MOLT-4 leukemia, with NCI-H23 lung and in the assay on SF-539 CNS was above 100 µM each time. In the assay on SK-MEL-5 melanoma, this molecule registered a TGI above 100 µM.
`C/C=C/C=C\C(=O)C1c2cccc(O)c2C(=O)c2c(O)cc(C)cc21` (stereo not drawn): the concentration for total growth inhibition (TGI) is 7.76 µM in the assay on A498 renal; 2.13 µM with A549 NSCLC; above 100 µM in the assay with K-562 leukemia; 8.19 µM in the assay with MOLT-4 leukemia; 3.65 µM in the assay with NCI-H23 lung; 2.2 µM in the assay on OVCAR-3 ovarian. Moreover, the TGI was found to be 1.52 µM in the assay on SF-539 CNS and 2.69 µM in the assay on SK-MEL-5 melanoma.
Regarding `COc1cccc(N2C(=O)[C@H]3[C@H]4CC(C(C)(C)C)CC[C@H]4c4c([nH]c5ccccc45)[C@H]3C2=O)c1` (stereo partly drawn), the TGI worked out at 29 µM with A549 NSCLC; 29 µM with K-562 leukemia; 25.1 µM in the assay on MOLT-4 leukemia; 40.9 µM with NCI-H23 lung; 36.2 µM in the assay on OVCAR-3 ovarian; 42.1 µM with SF-539 CNS. The molecule also yielded a TGI in the assay on SK-MEL-5 melanoma of 35.6 µM.
For the molecule `CCC[CH2][Ge]([CH2]CCC)([CH2]CCC)[O]C(=O)C(OC(C)=O)c1ccccc1` (stereo not drawn), the GI50 in the assay on A498 renal was 11.4 µM; with A549 NSCLC, 3.37 µM; in the assay with K-562 leukemia, 0.202 µM; with MOLT-4 leukemia, 0.153 µM; in the assay with NCI-H23 lung it was 0.0395 µM; in the assay with OVCAR-3 ovarian, 0.731 µM. Besides, the GI50 with SF-539 CNS was 7.63 µM; in the assay on SK-MEL-5 melanoma, 0.774 µM. Moreover, the TGI in the assay on A498 renal is 24.3 µM; with A549 NSCLC, 30.9 µM; in the assay on K-562 leukemia, above 34 µM; in the assay with MOLT-4 leukemia, above 100 µM; in the assay on NCI-H23 lung, 6.24 µM; in the assay on OVCAR-3 ovarian, 8.52 µM. Also, the TGI in the assay on SF-539 CNS was found to be 22.3 µM; in the assay with SK-MEL-5 melanoma, 11.6 µM.
`O=C(NCCCCCCNC(=O)NC1OCC(O)C(O)C1O)NC1OCC(O)C(O)C1O` (stereo not drawn): the TGI with A549 NSCLC, with K-562 leukemia, in the assay on MOLT-4 leukemia, in the assay with NCI-H23 lung, with OVCAR-3 ovarian and with SF-539 CNS was above 100 µM each time. The molecule also gave a TGI with SK-MEL-5 melanoma above 100 µM.
Consider `COc1cc(CCNc2nc3cc(N)cc(N)c3nc2-c2ccccc2)cc(OC)c1`, for which the GI50 in the assay on A498 renal was 3.95 µM; with A549 NSCLC, 3.64 µM; with DU-145 prostate it was 5.48 µM; in the assay with K-562 leukemia, 1.73 µM; in the assay with MOLT-4 leukemia, 0.941 µM; in the assay on NCI-H23 lung, 1.59 µM. The GI50 was 1.08 µM in the assay with OVCAR-3 ovarian, 2.19 µM in the assay with SF-539 CNS and 1.79 µM in the assay with SK-MEL-5 melanoma. Also, the TGI with A498 renal came to 14.3 µM; in the assay on A549 NSCLC, 14.9 µM; in the assay on DU-145 prostate it was 17.8 µM; in the assay with K-562 leukemia it was 4.25 µM; in the assay on MOLT-4 leukemia it was 2.67 µM; in the assay with NCI-H23 lung it was 3.58 µM. The TGI in the assay on OVCAR-3 ovarian amounted to 2.35 µM; in the assay on SF-539 CNS, 4.14 µM; with SK-MEL-5 melanoma, 3.36 µM.
`CN/N=C(/CC(=O)c1sc(-n2nc(-c3ccccc3)cc2-c2ccccc2)nc1C)C(=O)Nc1ccc(Cl)c(Cl)c1`: the TGI with A498 renal, with A549 NSCLC, in the assay with K-562 leukemia, in the assay on MOLT-4 leukemia, in the assay with NCI-H23 lung and in the assay with OVCAR-3 ovarian was above 100 µM throughout. Besides, the TGI in the assay on SF-539 CNS and in the assay with SK-MEL-5 melanoma was above 100 µM each time.
In the case of `CO[C@]12CCC(=O)N1C=Cc1c2[nH]c2ccccc12`, the TGI in the assay on A498 renal, with A549 NSCLC, with K-562 leukemia, in the assay with MOLT-4 leukemia, in the assay with NCI-H23 lung and with OVCAR-3 ovarian was above 100 µM in each case. Moreover, the TGI in the assay with SF-539 CNS and in the assay on SK-MEL-5 melanoma was above 100 µM throughout.
